# Assay results taken from patent publication US20250262279A1, “DOSE REGIMEN FOR LONG-ACTING GLP1/GLUCAGON RECEPTOR AGONISTS” (Boehringer Ingelheim International GmbH, priority 2021, published 2025).
# Where two headings read alike, the source gives them in different places.
# Key:
# [1] = Example 1: plasma pharmacokinetics; assay type: in vivo; conditions: human, sc; for Cmax: read-out: Cmax (gMean)
# [2] = Example 2: plasma pharmacokinetics; assay type: in vivo; conditions: human, sc, read-out: AUC0-168 (gMean)
# Excerpt: In Table 9, only the gMean PK parameters of subjects who followed the planned dose rising scheme are included. Following subcutaneous administration of Compound I, the gMean plasma AUC0-168 and Cmax increased with further weekly or twice weekly dosing.
smiles,measurement,setting,value
CC[C@H](C)[C@H](NC(=O)[C@H](Cc1ccccc1)NC(=O)[C@H](CC(=O)O)NC(=O)[C@H](CCCCN)NC(=O)[C@H](C)NC(=O)[C@H](C)NC(=O)[C@H](CCCNC(=N)N)NC(=O)[C@H](CCC(=O)O)NC(=O)[C@H](CC(=O)O)NC(=O)[C@H](CC(C)C)NC(=O)[C@H](Cc1ccc(O)cc1)NC(=O)[C@H](CCCCN)NC(=O)[C@H](CO)NC(=O)[C@H](Cc1ccc(O)cc1)NC(=O)[C@H](CC(=O)O)NC(=O)[C@H](CO)NC(=O)[C@@H](NC(=O)[C@H](Cc1ccccc1)NC(=O)[C@@H](NC(=O)CNC(=O)[C@H](CCC(N)=O)NC(=O)C1(NC(=O)[C@@H](N)Cc2c[nH]cn2)CCC1)[C@@H](C)O)[C@@H](C)O)C(=O)N[C@@H](CCCCNC(=O)CNC(=O)CNC(=O)[C@H](CO)NC(=O)CNC(=O)[C@H](CO)NC(=O)CNC(=O)CC[C@H](NC(=O)CCCCCCCCCCCCCCCCC(=O)O)C(=O)O)C(=O)N[C@@H](Cc1c[nH]c2ccccc12)C(=O)N[C@@H](CC(C)C)C(=O)N[C@@H](CCC(=O)O)C(=O)N[C@@H](CO)C(=O)N[C@@H](C)C(N)=O [Compound I],Cmax,"[1]; 1.8 mg, Ex.1 weekly scheme 5, wk 5, 1.8 mg sc",57.9 nM
same,AUC(0-t),"[1]; 1.8 mg, Ex.1 weekly scheme 5, wk 6, 1.8 mg sc, read-out: AUC0-168 (gMean)",6.77 µM·h
same,Cmax,"[1]; 1.8 mg, Ex.1 weekly scheme 5, wk 6, 1.8 mg sc",63.3 nM
same,AUC(0-t),"[1]; 2 mg, Ex.1 weekly scheme 2, wk 5, 2.0 mg sc, read-out: AUC0-168 (gMean)",6.55 µM·h
same,Cmax,"[1]; 2 mg, Ex.1 weekly scheme 2, wk 5, 2.0 mg sc",57.7 nM
same,AUC(0-t),"[1]; 2.1 mg, Ex.1 twice weekly scheme, wk 13, 2.1 mg sc, read-out: AUC0-72 (gMean)",6.7 µM·h
same,Cmax,"[1]; 2.1 mg, Ex.1 twice weekly scheme, wk 13, 2.1 mg sc",108 nM
same,AUC(0-t),"[1]; 2.4 mg, Ex.1 twice weekly scheme, wk 15, 2.4 mg sc, read-out: AUC0-72 (gMean)",7.62 µM·h
same,Cmax,"[1]; 2.4 mg, Ex.1 twice weekly scheme, wk 15, 2.4 mg sc",132 nM
same,AUC(0-t),"[1]; 2.4 mg, Ex.1 twice weekly scheme, wk 16, 2.4 mg sc, read-out: AUC0-72 (gMean)",8.55 µM·h
same,Cmax,"[1]; 2.4 mg, Ex.1 twice weekly scheme, wk 16, 2.4 mg sc",142 nM
same,AUC(0-t),"[1]; 2.4 mg, Ex.1 weekly scheme 2, wk 6, 2.4 mg sc, read-out: AUC0-168 (gMean)",8.19 µM·h
same,Cmax,"[1]; 2.4 mg, Ex.1 weekly scheme 2, wk 6, 2.4 mg sc",70.6 nM
same,AUC(0-t),"[1]; 2.4 mg, Ex.1 weekly scheme 3, wk 5, 2.4 mg sc, read-out: AUC0-168 (gMean)",7.19 µM·h
same,Cmax,"[1]; 2.4 mg, Ex.1 weekly scheme 3, wk 5, 2.4 mg sc",63 nM
same,AUC(0-t),"[1]; 2.4 mg, Ex.1 weekly scheme 4, wk 13, 2.4 mg sc, read-out: AUC0-168 (gMean)",10.3 µM·h
same,Cmax,"[1]; 2.4 mg, Ex.1 weekly scheme 4, wk 13, 2.4 mg sc",88.3 nM
same,AUC(0-t),"[1]; 2.4 mg, Ex.1 weekly scheme 4, wk 15, 2.4 mg sc, read-out: AUC0-168 (gMean)",10.9 µM·h
same,Cmax,"[1]; 2.4 mg, Ex.1 weekly scheme 4, wk 15, 2.4 mg sc",87.1 nM
same,AUC(0-t),"[1]; 2.4 mg, Ex.1 weekly scheme 4, wk 16, 2.4 mg sc, read-out: AUC0-168 (gMean)",11.5 µM·h
same,Cmax,"[1]; 2.4 mg, Ex.1 weekly scheme 4, wk 16, 2.4 mg sc",97.3 nM
same,AUC(0-t),"[1]; 2.4 mg, Ex.1 weekly scheme 5, wk 7, 2.4 mg sc, read-out: AUC0-168 (gMean)",9.08 µM·h
same,Cmax,"[1]; 2.4 mg, Ex.1 weekly scheme 5, wk 7, 2.4 mg sc",77.8 nM
same,AUC(0-t),"[1]; 3 mg, Ex.1 weekly scheme 3, wk 6, 3.0 mg sc, read-out: AUC0-168 (gMean)",10.4 µM·h
same,Cmax,"[1]; 3 mg, Ex.1 weekly scheme 3, wk 6, 3.0 mg sc",88.7 nM
same,AUC(0-t),"[1]; 3 mg, Ex.1 weekly scheme 5, wk 9, 3.0 mg sc, read-out: AUC0-168 (gMean)",11.3 µM·h
same,Cmax,"[1]; 3 mg, Ex.1 weekly scheme 5, wk 9, 3.0 mg sc",102 nM
same,AUC(0-t),"[1]; 3.6 mg, Ex.1 weekly scheme 5, wk 11, 3.6 mg sc, read-out: AUC0-168 (gMean)",14.2 µM·h
same,Cmax,"[1]; 3.6 mg, Ex.1 weekly scheme 5, wk 11, 3.6 mg sc",129 nM
same,AUC(0-t),"[1]; 4.2 mg, Ex.1 weekly scheme 5, wk 13, 4.2 mg sc, read-out: AUC0-168 (gMean)",15.9 µM·h
same,Cmax,"[1]; 4.2 mg, Ex.1 weekly scheme 5, wk 13, 4.2 mg sc",134 nM
same,AUC(0-t),"[1]; 4.8 mg, Ex.1 weekly scheme 5, wk 15, 4.8 mg sc, read-out: AUC0-168 (gMean)",18.7 µM·h
same,Cmax,"[1]; 4.8 mg, Ex.1 weekly scheme 5, wk 15, 4.8 mg sc",161 nM
same,AUC(0-t),"[1]; 4.8 mg, Ex.1 weekly scheme 5, wk 16, 4.8 mg sc, read-out: AUC0-168 (gMean)",19.7 µM·h
same,Cmax,"[1]; 4.8 mg, Ex.1 weekly scheme 5, wk 16, 4.8 mg sc",193 nM
same,AUC(0-t),"[2]; 0.6 mg, Ex.2 DG2 weekly, wk 1, 0.6 mg sc",2.02 µM·h
same,AUC(0-t),"[2]; 0.6 mg, Ex.2 DG3 twice weekly, wk 3, 0.6 mg sc",1.64 µM·h
same,AUC(0-t),"[2]; 0.9 mg, Ex.2 DG1 weekly, wk 3, 0.9 mg sc",3.62 µM·h
same,AUC(0-t),"[2]; 0.9 mg, Ex.2 DG3 twice weekly, wk 5, 0.9 mg sc",3.52 µM·h
same,AUC(0-t),"[2]; 0.9 mg, Ex.2 DG3 twice weekly, wk 6, 0.9 mg sc",3.83 µM·h
same,AUC(0-t),"[2]; 1.2 mg, Ex.2 DG2 weekly, wk 3, 1.2 mg sc",4.93 µM·h
same,AUC(0-t),"[2]; 1.2 mg, Ex.2 DG3 twice weekly, wk 7, 1.2 mg sc",4.69 µM·h
same,AUC(0-t),"[2]; 1.5 mg, Ex.2 DG1 weekly, wk 5, 1.5 mg sc",6.74 µM·h
same,AUC(0-t),"[2]; 1.5 mg, Ex.2 DG3 twice weekly, wk 9, 1.5 mg sc",6.72 µM·h
same,AUC(0-t),"[2]; 1.8 mg, Ex.2 DG1 weekly, wk 6, 1.8 mg sc",8.41 µM·h
same,AUC(0-t),"[2]; 1.8 mg, Ex.2 DG1 weekly, wk 7, 1.8 mg sc",9.01 µM·h
same,AUC(0-t),"[2]; 1.8 mg, Ex.2 DG1 weekly, wk 9, 1.8 mg sc",8.52 µM·h
same,AUC(0-t),"[2]; 1.8 mg, Ex.2 DG1 weekly, wk 11, 1.8 mg sc",8.83 µM·h
same,AUC(0-t),"[2]; 1.8 mg, Ex.2 DG1 weekly, wk 13, 1.8 mg sc",9.22 µM·h
same,AUC(0-t),"[2]; 1.8 mg, Ex.2 DG1 weekly, wk 15, 1.8 mg sc",9.5 µM·h
same,AUC(0-t),"[2]; 1.8 mg, Ex.2 DG1 weekly, wk 16, 1.8 mg sc",9.62 µM·h
same,AUC(0-t),"[2]; 1.8 mg, Ex.2 DG2 weekly, wk 5, 1.8 mg sc",6.64 µM·h
same,AUC(0-t),"[2]; 1.8 mg, Ex.2 DG2 weekly, wk 6, 1.8 mg sc",7.55 µM·h
same,AUC(0-t),"[2]; 1.8 mg, Ex.2 DG3 twice weekly, wk 11, 1.8 mg sc",8.21 µM·h
same,AUC(0-t),"[2]; 2.1 mg, Ex.2 DG3 twice weekly, wk 13, 2.1 mg sc",9.78 µM·h
same,AUC(0-t),"[2]; 2.4 mg, Ex.2 DG2 weekly, wk 7, 2.4 mg sc",9.83 µM·h
same,AUC(0-t),"[2]; 2.4 mg, Ex.2 DG3 twice weekly, wk 15, 2.4 mg sc",10.2 µM·h
same,AUC(0-t),"[2]; 2.4 mg, Ex.2 DG3 twice weekly, wk 16, 2.4 mg sc",11.2 µM·h
same,AUC(0-t),"[2]; 3 mg, Ex.2 DG2 weekly, wk 9, 3.0 mg sc",13.7 µM·h
same,AUC(0-t),"[2]; 3.6 mg, Ex.2 DG2 weekly, wk 11, 3.6 mg sc",16.4 µM·h
same,AUC(0-t),"[2]; 4.2 mg, Ex.2 DG2 weekly, wk 13, 4.2 mg sc",19.3 µM·h
same,AUC(0-t),"[2]; 4.8 mg, Ex.2 DG2 weekly, wk 15, 4.8 mg sc",22.9 µM·h
